Experimental findings from patent publication US10519162B2, “6,7-dihydropyrazolo[1,5-α]pyrazin-4(5H)-one compounds and their use as negative allosteric modulators of mGluR2 receptors” (Janssen Pharmaceutica NV, priority 2014, dated 2019) are described below.

For series [1], the system named is rats. Description: Reversal of the effect of the mGluR2 PAM JNJ-42153605-induced inhibition of scopolamine-induced hyperlocomotion (SCOP JNJ-42153605). The class given is in vivo, rat. The settings on record: Rattus norvegicus, rats, reversal criterion total distance >1500 cm. The gist of the method: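 Rats got test compound or vehicle 60 min pre-recording, JNJ-42153605 (20 mg/kg, i.v.) 30 min pre-recording, then scopolamine (0.16 mg/kg, i.v.) just before. Total distance over the first 30 min was video-tracked; all-or-none reversal criterion: total distance >1500 cm.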

The test system of series [2] is Male Long Evans rats. Description: V-maze test (PCP-disrupted visual-spatial working memory). The class given is in vivo, rat. The settings on record: Co. No. 8 at doses 0.16 and 0.31 mg/kg p.o. 4 h before test, PCP 0.75 mg/kg s.c. 30 min prior to test. The text has this:
Data are reported as Mean±SEM, n=12/group; ANOVA with LSD-post hoc, p vs. familiar arm: *** p<0.001, *<0.05. In FIG. 1, veh means vehicle and CPD means Co. No. 8
The V-maze-test is a two-trial short term visual-spatial working memory task based on spontaneous exploration of a new and a familiar arm in a 2-arm maze (Embrechts et al. (2013) “Longitudinal characterization of the TauPS2APP mouse model of Alzheimer's disease in a two trial discrimination task of visuo-spatial recognition memory”, 45th European Brain and Behaviour Society Meeting 6-9 Sep. 2013, Munich, Abstract P202).
Male Long Evans rats (Janvier, France, body weight 280 to 295 g) were group housed in enriched individually ventilated cages and habituated to environmental conditions for 5 days. After acclimatization, animals were single housed for 4 days until testing. During this period animals were handled for 2 min per day and received sham dosing once a day for 3 days prior to the test. […] The animal's exploration of each arm was automatically quantified using Ethovision XT 7.0 (Noldus, The Netherlands). […] The time spent in the familiar and new arm respectively during the choice session was recorded for 5 min.
Co. No. 8 was evaluated in rats in a series of dose-response studies evaluating doses from 0.16 to 0.63 mg/kg.

In series [3] the test system is Wiga rats. Description: Induction of mydriasis (MYD). Format: in vivo. The settings on record: Rattus norvegicus, pupil diameter >25 units, 1-3 h post-administration. The method, then: 3) Induction of Mydriasis
The pupil diameter of Wiga rats was measured with a microscopic micrometer (1 unit=1/24 mm). Criteria for drug-induced effects: pupil diameter >25 units for mydriasis (in controls: 1.9%) 1, 2 or 3 h post-administration of the test compound (wherein the maximum pupil diameter over the full 3 h period is reported).

Series [4] deals with T1, human mGlu2 receptor (Homo sapiens, UniProt Q14416).
T1 construct: expressed in transfected cells; host or cells: CHO cells
Description: [35S]GTPγS binding assay (mGluR2 negative allosteric modulation, glutamate ~EC80 60 μM). Format: biochemical. As to the method: 1) [^35S]GTPγS Binding Assay
[^35S]GTPγS Binding Assay
Total reaction volume was 200 μl. […] Membrane-bound radioactivity was counted in a Topcount.

Series [5] has as its system Male Wiga Wistar rats. Description: Reversal of LY-404039-induced decrease of palpebral opening in apomorphine-challenged rats (APO LY-404039). The class given is in vivo, rat. Conditions: Rattus norvegicus, apomorphine challenged rats. As to the method:
B) In Vivo Pharmacology 1) Reversal of LY-404039-Induced Decrease of Palpebral Opening in Apomorphine-Challenged Rats.
Male Wiga Wistar rats (Crl:WI; Charles River Germany; 220±40 g) were housed under standard laboratory conditions (21±2° C.; 50-65% relative humidity; light-dark cycle set at 12 h; lights on at 6.00 h) and fasted overnight prior to the start of the experiments (tap water remained available ad libitum). During the test period, they were housed in individual cages. Palpebral opening was scored every 5 min over the first hour after injection of apomorphine (1.0 mg/kg, i.v.) in animals either pretreated or not pretreated with LY-404039 (2.5 mg/kg, s.c.) at 1 h prior to the apomorphine injection. The animals were also pretreated with test compound or solvent at a predefined interval before apomorphine challenge. The score system was: (5) exophthalmos, (4) wide open, (3) open for three-quarters, (2) half open, (1) open for one-quarter, (0) closed. The scores for palpebral opening were cumulated over the 60-min observation period.
In animals receiving apomorphine alone the median palpebral opening is 43 whereas in animals receiving apomorphine and LY-404039, the median palpebral opening is 17.

T1 sequence (Q14416 19-872): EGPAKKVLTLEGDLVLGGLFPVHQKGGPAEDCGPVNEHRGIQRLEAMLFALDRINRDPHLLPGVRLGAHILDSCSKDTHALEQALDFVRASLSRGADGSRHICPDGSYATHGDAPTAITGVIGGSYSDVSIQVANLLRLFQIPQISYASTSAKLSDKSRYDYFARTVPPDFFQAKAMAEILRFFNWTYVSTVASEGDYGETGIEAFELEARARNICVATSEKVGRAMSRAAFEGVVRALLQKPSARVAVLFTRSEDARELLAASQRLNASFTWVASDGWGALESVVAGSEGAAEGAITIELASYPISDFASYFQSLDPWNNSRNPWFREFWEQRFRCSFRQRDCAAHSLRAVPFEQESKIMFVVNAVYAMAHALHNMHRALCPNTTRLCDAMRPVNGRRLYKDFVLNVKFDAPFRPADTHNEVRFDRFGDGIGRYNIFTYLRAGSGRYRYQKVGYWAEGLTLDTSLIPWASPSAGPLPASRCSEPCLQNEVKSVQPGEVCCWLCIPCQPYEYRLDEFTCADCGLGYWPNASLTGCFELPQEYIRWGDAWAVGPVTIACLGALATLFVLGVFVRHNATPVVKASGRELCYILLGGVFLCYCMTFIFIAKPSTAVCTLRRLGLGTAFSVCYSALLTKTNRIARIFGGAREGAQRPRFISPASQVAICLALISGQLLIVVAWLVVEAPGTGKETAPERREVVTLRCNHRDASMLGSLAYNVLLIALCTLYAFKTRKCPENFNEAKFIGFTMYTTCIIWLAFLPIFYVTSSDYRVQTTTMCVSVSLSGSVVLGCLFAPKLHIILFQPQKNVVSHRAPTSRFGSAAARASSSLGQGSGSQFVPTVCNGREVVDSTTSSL

For orientation: melting point means the temperature, or range, at which the solid turns liquid. By ED50 is commonly meant the midpoint of the dose-response relation. What is called Emax is the maximal effect, on the per cent scale that the assay sets. `C[C@H]1CN(c2ccc(C(F)(F)F)cc2)C(=O)c2c(NC(=O)c3ccc(N)nc3)cnn21` [Co. No. 8, 6-Amino-N-[(7S)-7-methyl-4-oxo-5-[4-(trifluoromethyl)phenyl]-6,7-dihydropyrazolo[1,5-a]pyrazin-3-yl]pyridine-3-carboxamide]: the melting point was found to be 240.39 °C. For the same molecule, the ED50 in series [1] (PO (oral route)) stood at 0.13 mg/kg. For the same molecule, the ED50 in series [1] (SC (subcutaneous route)) is 0.13 mg/kg. Also, the “exploration of the new vs. the familiar arm in the V-maze (reversal of PCP deficit)” value in series [2] was “significantly reversed the PCP deficit”. In addition, the ED50 in series [3] (PO (oral route)) was 8.7 mg/kg. Besides, it took a dose of 7.1 mg/kg to reach the 50% effect level in series [3] (SC (subcutaneous route)) (ED50). Further, the Emax in series [4] (maximal % inhibition relative to the control glutamate response (EC80 glutamate), read-out: GTPγS-hmGluR2 anGT Emax) was 110%. The IC50 in series [4] (membranes from CHO cells transfected with human mGlu2 receptor, glutamate ~EC80 (60 μM), pIC50 = −log IC50 (M), read-out: GTPγS-hmGluR2 anGT pIC50 (converted)) was 2.14e-09 M. Also, the ED50 in series [5] (PO (oral route)) is 0.19 mg/kg. The ED50 in series [5] (SC (subcutaneous route)) came out at 0.34 mg/kg.
